pKi: −log10 of the molar value. Structures can show the parent of a compound that is named as a salt. Where two headings read alike, the source gives them in different places. Blank lines part the entries; values can stand above or below the compound they belong to.
What was measured:
[1] = test system: protein extravasation in the dura; experiment: Inhibition of neuronal protein extravasation (trigeminal ganglion stimulation, Evans Blue in dura); format: in vivo, Harlan Sprague-Dawley rats or guinea pigs
5-HT1F receptor = biological target: T1, 5-HT1F receptor (Homo sapiens, UniProt P30939); experiment: Radioligand ([3H]5-HT) binding to the 5-HT1F receptor subtype; set-up: expressed in transfected cells; host or cells: Ltk- cells (membranes)
T1 sequence (P30939 1-366): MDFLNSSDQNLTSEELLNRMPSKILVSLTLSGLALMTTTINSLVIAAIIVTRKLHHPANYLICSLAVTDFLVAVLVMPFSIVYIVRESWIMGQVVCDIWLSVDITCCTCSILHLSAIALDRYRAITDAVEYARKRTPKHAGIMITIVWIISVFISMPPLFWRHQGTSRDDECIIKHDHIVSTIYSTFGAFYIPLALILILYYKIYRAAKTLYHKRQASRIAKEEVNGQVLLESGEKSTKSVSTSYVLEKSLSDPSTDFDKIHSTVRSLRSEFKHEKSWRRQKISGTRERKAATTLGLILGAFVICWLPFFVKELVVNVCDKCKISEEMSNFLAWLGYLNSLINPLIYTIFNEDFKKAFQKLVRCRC
Protocol: The cells were washed twice with phosphate-buffered saline, scraped from the culture dishes into 5 mL of ice-cold phosphate-buffered saline, and centrifuged at 200×g for 5 minutes at 4° C. The pellet was resuspended in 2.5 mL of ice-cold Tris buffer (20 mM Tris HCl, pH=7.4 at 23° C., 5 mM EDTA) and homogenized with a Wheaton tissue grinder. The lysate was subsequently centrifuged at 200×g for 5 minutes at 4° C. to pellet large fragments which were discarded. The supernatant was collected and centrifuged at 40,000×g for 20 minutes at 4° C. The pellet resulting from this centrifugation was washed once in ice-cold Tris wash buffer and resuspended in a final buffer containing 50 mM Tris HCl and 0.5 mM EDTA, pH=7.4 at 23° C. Membrane preparations were kept on ice and utilized within two hours for the radioligand binding assays.
Saturation studies were conducted using [^3 H]5-HT at 12 different concentrations ranging from 0.5 nM to 100 nM. […] The binding profile of drugs in competition experiments was accomplished using 10-12 concentrations of compound. […] Nonspecific binding was defined in the presence of 10 μM 5-HT. Binding was initiated by the addition of 50 μL membrane homogenates (10-20 μg). The reaction was terminated by rapid filtration through presoaked (0.5% polyethyleneimine) filters using 48R Cell Brandel Harvester (Gaithersburg, Md.). Subsequently, filters were washed for 5 seconds with ice cold buffer (50 mM Tris HCl, pH=7.4 at 4° C.), dried and placed into vials containing 2.5 mL Readi-Safe (Beckman, Fullerton, Calif.) and radioactivity was measured using a Beckman LS 5000TA liquid scintillation counter. […] Binding data was analyzed by computer-assisted nonlinear regression analysis (Accufit and Accucomp, Lunden Software, Chagrin Falls, Ohio). […] All experiments were performed in triplicate. […]

neurogenic inflammation = settings: in vivo; cited from earlier work
[2] = test system: cephalic vascular smooth muscle; settings: cited from earlier work
migraine = settings: in vivo; cited from earlier work
[3] = iv, read-out: Inhibition of Protein Extravasation, i.v. ID50
[4] = Table I, [3H]5-HT displacement, transfected Ltk- cell membranes, 37° C., read-out: 5-HT1F BINDING Ki

SMILES: Cn1cc(CCN2CCC(c3c[nH]c4ccc(F)cc34)CC2)cn1 [Compound II, 5-fluoro-3-<1-<2-<1-methyl-1H-pyrazol-4-yl>ethyl>-4-piperidinyl>-1H-indolehydrochloride]
ED50 ([1]; iv; read-out: Inhibition of Protein Extravasation, i.v. ID50): 8.6e-07 µmol/kg

SMILES: Oc1ccc2[nH]cc(C3CCNCC3)c2c1 [Compound III, 5-hydroxy-3-(4-piperidinyl)-1H-indole oxalate]
ED50 [1, 3]: 8.9e-06 µmol/kg

SMILES: CCN(CC)C1CCc2cccc(Cl)c2C1 (stereo not drawn) [Compound IV, 8-chloro-2-diethylamino-1,2,3,4-tetrahydronaphthalene hydrochloride]
ED50 [1, 3]: 0.00012 µmol/kg

SMILES: CNS(=O)(=O)Cc1ccc2[nH]cc(CCN(C)C)c2c1 [Compound I, 3-[2-(dimethylamino)ethyl]-N-methyl-1H-indole-5-methanesulfonamide butane-1,4-dioate (1:1)]
ED50 [1, 3]: 2.6e-05 µmol/kg

SMILES: CN(C)C1CCc2[nH]c3ccc(O)cc3c2C1 (stereo not drawn) [Compound V, 6-hydroxy-3-dimethylamino-1,2,3,4-tetrahydrocarbazole]
ED50 [1, 3]: 8.7e-06 µmol/kg

pKi (5-HT1F receptor; [4]): 7.76
SMILES: c1ccc(CCN2CCC(c3c[nH]c4ccc(OCc5ccccc5)cc34)CC2)cc1 [Example 29, 5-benzyloxy-3-<1-<2-phenylethyl>-4-piperidinyl>-1H-indole hydrochloride]

SMILES: Clc1ccc2[nH]cc(C3=CCN(CCc4ccccc4)CC3)c2c1 [Example 20, 5-chloro-3-<1-<2-phenylethyl>-4-<1,2,3,6-tetrahydropyridinyl>>-1H-indolehydrochloride]
pKi (5-HT1F receptor): 7.41

pKi (5-HT1F receptor; [4]): 7.51
SMILES: Fc1ccc(CCN2CCC(c3c[nH]c4ccccc34)CC2)cc1 [Example 3, 3-<1-<2-<4-fluorophenyl>ethyl>-4-piperidinyl>-1H-indole hydrochloride]

SMILES: Fc1ccc2[nH]cc(C3=CCN(CCc4ccccc4)CC3)c2c1 [Example 18, 5-fluoro-3-<1-<2-phenylethyl>-4-<1,2,3,6-tetrahydropyridinyl>>-1H-indolehydrochloride]
pKi (5-HT1F receptor): 7.32

pKi (5-HT1F receptor; [4]): 7.28
SMILES: Clc1ccc(CCN2CCC(c3c[nH]c4ccccc34)CC2)cc1 [Example 32, 3-<1-<2-<4-chlorophenyl>ethyl>-4-piperidinyl>-1H-indole hydrochloride]

pKi (5-HT1F receptor; [4]): 7.04
SMILES: c1ccc(OCCCN2CCC(c3c[nH]c4ccccc34)CC2)cc1 [Example 41, 3-<1-<3-phenoxypropyl>-4-piperidinyl>-1H-indole hydrochloride]

pKi (5-HT1F receptor; [4]): 7.93
SMILES: Clc1cccc(CCN2CCC(c3c[nH]c4ccccc34)CC2)c1 [Example 6, 3-<1-<2-<3-chlorophenyl>ethyl>-4-piperidinyl>-1H-indole hydrochloride]

pKi (5-HT1F receptor; [4]): 7.28
SMILES: c1ccc(CCN2CCC(c3c[nH]c4ccccc34)CC2)cc1 [Example 26, 3-<1-<2-phenylethyl>-4-piperidinyl>-1H-indole]

pKi (5-HT1F receptor; [4]): 7.41
SMILES: COc1ccc2[nH]cc(C3CCN(CCc4ccccc4)CC3)c2c1 [Example 28, 5-methoxy-3-<1-<2-phenylethyl>-4-piperidinyl>-1H-indole hydrochloride]

SMILES: CNS(=O)(=O)Cc1ccc2[nH]cc(CCN(C)C)c2c1 [sumatriptan]
blockade of neurogenic inflammation (neurogenic inflammation): blocked | contraction of cephalic vascular smooth muscle [2]: contract cephalic vascular smooth muscle | effectiveness in the treatment of migraine (migraine): effective in the treatment of migraine

SMILES: C1=C(c2c[nH]c3ccccc23)CCN(CCCCc2ccccc2)C1 [Example 43, 3-<1-<4-phenylbutyl>-4-<1,2,3,6-tetrahydropyridinyl>>-1H-indolehydrochloride]
pKi (5-HT1F receptor; [4]): 6.26

— patent publication US5521197A, “3-<1-alkylenearyl>-4-<1,2,3,6-tetrahydropyridinyl>-and 3-<1-alkylenearyl>-4-piperidinyl-1h-indoles: new 5-HT1F agonists” (Eli Lilly and Company, priority 1994, dated 1996)
